According to ChEMBL document CHEMBL2321780, “Fluorinated quinazolinones as potential radiotracers for imaging kinesin spindle protein expression” (2013):

Assays:
MCF7 = experiment: Nonspecific cytotoxicity against human MCF7 cells after 44 hrs by MTT assay; format: functional; conditions: MCF7, 44 h
PC-3 = experiment: Nonspecific cytotoxicity against human PC3 cells after 44 hrs by MTT assay; format: functional; conditions: PC-3, 44 h
DU-145 = experiment: Nonspecific cytotoxicity against human DU145 cells after 44 hrs by MTT assay; format: functional; conditions: DU-145, 44 h
[1] = target: T1, Kinesin-like protein KIFC3 (Homo sapiens) (UniProt Q9BVG8); experiment: Inhibition of KIFC3 (unknown origin)-mediated ATP hydrolysis assessed as residual activity at 1 uM after 10 to 20 mins by spectrophotometric analysis
T1 sequence (whole entry): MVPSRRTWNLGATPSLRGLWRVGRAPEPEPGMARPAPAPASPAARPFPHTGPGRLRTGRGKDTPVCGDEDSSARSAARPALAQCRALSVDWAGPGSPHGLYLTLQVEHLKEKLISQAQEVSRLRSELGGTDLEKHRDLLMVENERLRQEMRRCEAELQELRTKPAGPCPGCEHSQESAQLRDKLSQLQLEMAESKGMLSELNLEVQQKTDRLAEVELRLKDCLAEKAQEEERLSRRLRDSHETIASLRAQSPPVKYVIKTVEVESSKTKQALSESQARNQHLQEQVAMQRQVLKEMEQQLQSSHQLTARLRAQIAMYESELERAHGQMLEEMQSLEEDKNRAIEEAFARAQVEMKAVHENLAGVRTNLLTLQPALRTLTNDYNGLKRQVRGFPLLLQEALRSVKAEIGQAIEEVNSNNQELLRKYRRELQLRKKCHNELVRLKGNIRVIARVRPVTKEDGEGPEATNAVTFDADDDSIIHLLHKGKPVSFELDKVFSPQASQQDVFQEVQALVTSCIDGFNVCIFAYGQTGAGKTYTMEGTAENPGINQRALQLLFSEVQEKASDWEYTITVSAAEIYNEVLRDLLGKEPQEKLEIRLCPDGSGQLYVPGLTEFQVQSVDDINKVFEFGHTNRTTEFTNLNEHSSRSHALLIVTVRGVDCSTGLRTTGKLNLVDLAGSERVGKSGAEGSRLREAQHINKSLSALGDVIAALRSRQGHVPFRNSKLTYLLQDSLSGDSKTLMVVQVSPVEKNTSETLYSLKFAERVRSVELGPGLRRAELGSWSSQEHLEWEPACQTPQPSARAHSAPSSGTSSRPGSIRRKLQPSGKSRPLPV

[2] = target: T2, Kinesin-1 heavy chain (Homo sapiens) (UniProt P33176); experiment: Inhibition of KNH (unknown origin)-mediated ATP hydrolysis assessed as residual activity at 1 uM after 10 to 20 mins by spectrophotometric analysis
T2 sequence (whole entry): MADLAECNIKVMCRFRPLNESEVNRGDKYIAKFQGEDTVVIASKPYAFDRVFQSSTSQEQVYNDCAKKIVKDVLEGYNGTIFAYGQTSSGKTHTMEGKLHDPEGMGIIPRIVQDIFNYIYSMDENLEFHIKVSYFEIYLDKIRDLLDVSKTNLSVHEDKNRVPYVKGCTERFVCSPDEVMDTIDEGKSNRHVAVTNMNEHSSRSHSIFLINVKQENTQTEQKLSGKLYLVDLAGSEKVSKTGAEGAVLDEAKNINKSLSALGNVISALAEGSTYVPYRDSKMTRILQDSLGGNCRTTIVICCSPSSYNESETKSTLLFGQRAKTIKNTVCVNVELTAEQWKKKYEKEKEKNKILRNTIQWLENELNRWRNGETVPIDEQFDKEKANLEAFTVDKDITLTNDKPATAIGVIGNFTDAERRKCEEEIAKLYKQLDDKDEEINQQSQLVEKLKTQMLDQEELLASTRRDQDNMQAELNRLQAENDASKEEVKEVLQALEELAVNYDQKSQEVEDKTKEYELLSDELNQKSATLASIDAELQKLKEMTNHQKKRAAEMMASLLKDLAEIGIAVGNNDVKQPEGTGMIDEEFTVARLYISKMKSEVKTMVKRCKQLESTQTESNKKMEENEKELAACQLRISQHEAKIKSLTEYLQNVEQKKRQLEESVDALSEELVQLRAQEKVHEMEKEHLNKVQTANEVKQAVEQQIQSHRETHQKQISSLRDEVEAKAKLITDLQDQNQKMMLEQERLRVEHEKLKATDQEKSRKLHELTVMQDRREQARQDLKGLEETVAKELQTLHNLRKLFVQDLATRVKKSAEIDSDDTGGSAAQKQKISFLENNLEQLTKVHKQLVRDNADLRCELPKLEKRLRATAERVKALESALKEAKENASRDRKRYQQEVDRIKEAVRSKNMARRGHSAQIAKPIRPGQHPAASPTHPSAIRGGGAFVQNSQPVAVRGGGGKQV

[3] = target: T3, Kinesin-like protein KIF2C (Homo sapiens) (UniProt Q99661); experiment: Inhibition of MCAK (unknown origin)-mediated ATP hydrolysis assessed as residual activity at 1 uM after 10 to 20 mins by spectrophotometric analysis
T3 sequence (whole entry): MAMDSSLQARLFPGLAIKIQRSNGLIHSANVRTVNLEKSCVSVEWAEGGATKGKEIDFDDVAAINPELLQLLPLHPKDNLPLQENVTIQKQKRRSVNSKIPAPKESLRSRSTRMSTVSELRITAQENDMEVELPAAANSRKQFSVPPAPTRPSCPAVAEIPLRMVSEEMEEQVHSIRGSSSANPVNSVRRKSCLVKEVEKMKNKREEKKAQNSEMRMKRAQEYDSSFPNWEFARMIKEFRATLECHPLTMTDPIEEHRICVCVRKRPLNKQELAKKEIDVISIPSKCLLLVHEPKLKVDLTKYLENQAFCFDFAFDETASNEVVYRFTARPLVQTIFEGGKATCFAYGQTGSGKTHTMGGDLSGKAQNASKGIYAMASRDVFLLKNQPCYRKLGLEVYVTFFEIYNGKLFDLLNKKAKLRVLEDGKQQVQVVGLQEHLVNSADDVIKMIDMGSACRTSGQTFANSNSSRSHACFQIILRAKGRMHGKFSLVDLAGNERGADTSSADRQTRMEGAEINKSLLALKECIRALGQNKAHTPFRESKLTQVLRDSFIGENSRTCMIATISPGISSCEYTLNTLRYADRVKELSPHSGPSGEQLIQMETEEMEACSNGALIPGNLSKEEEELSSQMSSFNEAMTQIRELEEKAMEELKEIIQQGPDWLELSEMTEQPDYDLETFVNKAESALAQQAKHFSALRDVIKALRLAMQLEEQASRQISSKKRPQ

[4] = target: Centromere-associated protein E (Homo sapiens) (UniProt Q02224); experiment: Inhibition of CENP-E (unknown origin)-mediated ATP hydrolysis assessed as residual activity at 1 uM after 10 to 20 mins by spectrophotometric analysis
Centromere-associated protein E (Homo sapiens), sequence (Q02224 whole entry): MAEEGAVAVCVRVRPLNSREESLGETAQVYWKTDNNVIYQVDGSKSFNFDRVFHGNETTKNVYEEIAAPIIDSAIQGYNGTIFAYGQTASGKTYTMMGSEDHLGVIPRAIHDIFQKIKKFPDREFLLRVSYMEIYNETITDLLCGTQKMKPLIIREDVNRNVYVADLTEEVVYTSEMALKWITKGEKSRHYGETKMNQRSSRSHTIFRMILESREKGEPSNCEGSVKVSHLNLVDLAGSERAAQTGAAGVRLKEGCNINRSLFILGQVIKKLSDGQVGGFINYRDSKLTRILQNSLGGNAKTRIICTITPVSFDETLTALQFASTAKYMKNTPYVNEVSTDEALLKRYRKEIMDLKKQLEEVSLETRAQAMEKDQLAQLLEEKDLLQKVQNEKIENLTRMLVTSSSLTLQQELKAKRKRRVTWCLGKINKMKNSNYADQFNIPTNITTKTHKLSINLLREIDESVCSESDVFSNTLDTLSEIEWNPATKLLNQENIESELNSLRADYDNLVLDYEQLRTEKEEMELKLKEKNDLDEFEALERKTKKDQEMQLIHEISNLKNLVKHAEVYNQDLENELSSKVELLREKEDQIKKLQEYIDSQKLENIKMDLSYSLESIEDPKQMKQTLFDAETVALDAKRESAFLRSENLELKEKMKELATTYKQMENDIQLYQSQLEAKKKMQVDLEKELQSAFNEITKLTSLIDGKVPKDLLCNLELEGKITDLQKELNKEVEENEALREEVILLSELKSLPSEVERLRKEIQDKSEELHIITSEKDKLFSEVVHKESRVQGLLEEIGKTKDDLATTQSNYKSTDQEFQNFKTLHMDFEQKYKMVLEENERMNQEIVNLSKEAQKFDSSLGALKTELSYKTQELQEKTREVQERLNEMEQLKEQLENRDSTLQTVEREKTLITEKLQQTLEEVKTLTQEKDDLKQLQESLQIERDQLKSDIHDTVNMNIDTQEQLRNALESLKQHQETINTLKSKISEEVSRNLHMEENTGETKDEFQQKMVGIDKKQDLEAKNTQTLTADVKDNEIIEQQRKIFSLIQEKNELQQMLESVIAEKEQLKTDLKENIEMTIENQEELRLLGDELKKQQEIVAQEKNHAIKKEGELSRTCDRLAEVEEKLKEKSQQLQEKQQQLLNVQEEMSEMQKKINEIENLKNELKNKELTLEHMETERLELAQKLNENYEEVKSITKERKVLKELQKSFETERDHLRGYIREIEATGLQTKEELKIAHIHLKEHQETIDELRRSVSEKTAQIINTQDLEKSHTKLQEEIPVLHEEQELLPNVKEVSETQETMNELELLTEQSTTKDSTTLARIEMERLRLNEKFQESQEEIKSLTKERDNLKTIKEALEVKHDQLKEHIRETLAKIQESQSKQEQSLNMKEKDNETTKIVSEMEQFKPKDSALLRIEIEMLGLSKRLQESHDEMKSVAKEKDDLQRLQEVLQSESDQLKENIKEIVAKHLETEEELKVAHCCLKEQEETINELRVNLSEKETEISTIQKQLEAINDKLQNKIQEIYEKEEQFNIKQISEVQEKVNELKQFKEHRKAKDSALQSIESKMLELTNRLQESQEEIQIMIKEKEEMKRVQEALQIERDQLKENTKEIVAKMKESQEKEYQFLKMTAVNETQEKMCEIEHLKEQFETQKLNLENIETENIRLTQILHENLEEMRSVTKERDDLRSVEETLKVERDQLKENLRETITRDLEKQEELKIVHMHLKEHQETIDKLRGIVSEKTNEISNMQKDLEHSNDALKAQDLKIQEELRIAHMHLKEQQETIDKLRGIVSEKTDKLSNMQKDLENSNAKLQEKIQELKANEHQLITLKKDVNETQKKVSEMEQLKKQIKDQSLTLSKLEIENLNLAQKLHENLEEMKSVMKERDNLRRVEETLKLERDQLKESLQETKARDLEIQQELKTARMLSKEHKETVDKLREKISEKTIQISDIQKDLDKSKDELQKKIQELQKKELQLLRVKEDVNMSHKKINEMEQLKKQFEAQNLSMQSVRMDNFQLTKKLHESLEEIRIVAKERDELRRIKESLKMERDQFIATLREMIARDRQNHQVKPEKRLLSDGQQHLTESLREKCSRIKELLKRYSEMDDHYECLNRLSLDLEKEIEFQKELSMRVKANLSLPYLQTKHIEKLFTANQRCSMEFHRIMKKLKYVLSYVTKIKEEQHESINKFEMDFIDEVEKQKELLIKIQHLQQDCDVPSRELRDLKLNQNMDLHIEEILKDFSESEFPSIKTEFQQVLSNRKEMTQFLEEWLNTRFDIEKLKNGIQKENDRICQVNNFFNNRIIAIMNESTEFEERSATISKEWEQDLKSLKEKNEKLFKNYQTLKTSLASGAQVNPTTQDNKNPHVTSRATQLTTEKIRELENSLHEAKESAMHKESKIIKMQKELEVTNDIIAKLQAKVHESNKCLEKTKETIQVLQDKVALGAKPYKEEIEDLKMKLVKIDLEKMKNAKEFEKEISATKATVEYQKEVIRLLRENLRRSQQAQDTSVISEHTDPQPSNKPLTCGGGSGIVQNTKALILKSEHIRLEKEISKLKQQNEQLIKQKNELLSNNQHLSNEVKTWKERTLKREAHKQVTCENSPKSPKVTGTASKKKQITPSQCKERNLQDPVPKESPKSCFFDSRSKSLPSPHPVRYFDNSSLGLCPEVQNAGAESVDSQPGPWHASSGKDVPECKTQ

| Activity [1] | Activity [2] | Activity [3] | Activity [4] | SMILES | GI50 (MCF7) | GI50 (PC-3) | GI50 (DU-145) |
| --- | --- | --- | --- | --- | --- | --- | --- |
| 97.3% | 102% | 96.7% | 98% | Cc1ccc(C(=O)N(CCCN)[C@@H](c2nc3cc(Cl)ccc3c(=O)n2Cc2ccccc2)C(C)C)cc1 [ISPINESIB] | – | – | – |
| 97.9% | 96.8% | 99.2% | 99.1% | Cc1ccc(C(=O)N(CCCN)[C@H](c2nc3cc(Cl)ccc3c(=O)n2Cc2ccccc2)C(C)C)cc1 | – | – | – |

Further lines, the compound ahead of its results:

| SMILES | Activity [1] | Activity [2] | Activity [3] | Activity [4] | GI50 (MCF7) | GI50 (PC-3) | GI50 (DU-145) |
| --- | --- | --- | --- | --- | --- | --- | --- |
| CC(C)[C@@H](c1nc2cc(Cl)ccc2c(=O)n1Cc1ccccc1)N(CCCN)C(=O)c1ccc(F)cc1 | 98.7% | 99.2% | 98.9% | 97.4% | 1100 nM | 1300 nM | 350 nM |
| CC(C)[C@@H](c1nc2cc(Cl)ccc2c(=O)n1Cc1ccccc1)N(CCCN)C(=O)c1ccccc1F | 98.8% | 97.9% | 98.2% | 97.9% | 2000 nM | 160 nM | 720 nM |
| CC(C)C(c1nc2cc(Cl)ccc2c(=O)n1Cc1ccccc1)N(CCCN)C(=O)c1cccc(F)c1 (racemic) | 99.4% | 99.1% | 96.4% | 97.4% | 2900 nM | 7600 nM | 3300 nM |
| CC(C)[C@@H](c1nc2cc(Cl)ccc2c(=O)n1Cc1ccccc1)N(CCCN)C(=O)c1cccc(F)c1 | 98.9% | 98.9% | 98.6% | 100% | 630 nM | 1800 nM | 520 nM |
| CC(C)[C@H](c1nc2cc(Cl)ccc2c(=O)n1Cc1ccccc1)N(CCCN)C(=O)c1ccc(F)cc1 | 101% | 97.1% | 99.2% | 99.8% | 2500 nM | 5100 nM | 2200 nM |
| CC(C)[C@H](c1nc2cc(Cl)ccc2c(=O)n1Cc1ccccc1)N(CCCN)C(=O)c1ccccc1F | 99.4% | 97.2% | 98.7% | 99.1% | 3000 nM | 4600 nM | 5600 nM |
